Assay results: the supplement of paper PMC10307832

Tests used:
Test in all cases: relative viability (nuclei count vs DMSO), 5 days (fraction); higher = more cells survive
[1] = compound: CS(=O)(=O)c1ccc(-c2cnc(N)c(C(=O)Nc3ccccc3)n2)cc1 [VE-821] + CC(C)C[C@H](NC(=O)[C@H](Cc1ccccc1)NC(=O)c1cnccn1)B(O)O [Bortezomib] (partner 0.002 µM)
Summary of the method: (§1)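 Cells from lung cancer lines were seeded into 1536-well plates and, one day later, dosed by pin tool. Treatments were either a single drug or a fixed dose of an anchor drug with five library-drug doses (not always all listed) in √10 steps. After 5 days, nuclei were stained in a one-step fixation (final 0.05% Triton X-100, 1% formaldehyde, 1 ug/ml Hoechst) and counted on 4× images, and relative viability is the treated-to-vehicle nuclei ratio, as the median of duplicate plates.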

[2] = compound: CS(=O)(=O)c1ccc(-c2cnc(N)c(C(=O)Nc3ccccc3)n2)cc1 [VE-821] + C[C@]1(O)C[C@@H](c2nc(-c3ccc4ccc(-c5ccccc5)nc4c3)c3c(N)nccn32)C1 [Linsitinib] (partner 1 µM)
Summary of the method: as §1

[3] = compound: CS(=O)(=O)c1ccc(-c2cnc(N)c(C(=O)Nc3ccccc3)n2)cc1 [VE-821] + N=C(N)NC(=N)NCCc1ccccc1 [Phenformin] (partner 250 µM)
Summary of the method: as §1

[4] = compound: N#CC[C@H](C1CCCC1)n1cc(-c2ncnc3[nH]ccc23)cn1 [Ruxolitinib] + Cc1nc(Nc2ncc(C(=O)Nc3c(C)cccc3Cl)s2)cc(N2CCN(CCO)CC2)n1 [Dasatinib] (partner 0.075 µM)
Summary of the method: as §1

Cell Line	relative viability ([1]; first compound 0.08 µM)	relative viability ([1]; first compound 0.253 µM)	relative viability ([1]; first compound 2.53 µM)	relative viability ([1]; first compound 8 µM)	relative viability ([2]; first compound 0.08 µM)	relative viability ([2]; first compound 0.253 µM)	relative viability ([2]; first compound 2.53 µM)	relative viability ([2]; first compound 8 µM)	relative viability ([3]; first compound 0.08 µM)	relative viability ([3]; first compound 0.253 µM)	relative viability ([3]; first compound 0.8 µM)	relative viability ([3]; first compound 2.53 µM)	relative viability ([3]; first compound 8 µM)	relative viability ([4]; first compound 0.08 µM)	relative viability ([4]; first compound 0.8 µM)	relative viability ([4]; first compound 2.53 µM)	relative viability ([4]; first compound 8 µM)	relative viability ([1]; first compound 0.8 µM)	relative viability ([2]; first compound 0.8 µM)	relative viability ([4]; first compound 0.253 µM)
NCI-H520	0.603	0.697	0.57	0.47	1.09	0.931	1.03	0.755	0.575	0.613	0.375	0.818	0.381	0.239	0.183	0.159	0.163			
NCI-H1355	1.26	1.15	1.27	0.718	0.803	0.789	0.767	0.56	0.469	0.442	0.459	0.526	0.369	0.711	0.579	0.522	0.36	1.09	0.654	0.532
NCI-H1563	0.908	0.888	0.774	0.763	1.26	1.17	1.08	1.05	0.653	0.676	0.613	0.688	0.596	0.446	0.452	0.43	0.402	0.784	0.914	0.481
NCI-H1651	0.978	0.964	1.04	0.921	1.01	0.999	0.986	0.737	0.349	0.305	0.361	0.32	0.283	0.323	0.389	0.337	0.29	1.07	0.847	0.37
HCC-44	1	0.908	1.01	0.975	0.72	0.685	0.81	0.769	0.261	0.15	0.263	0.198	0.266					0.98	0.485	
NCI-H1437	0.504	0.523	0.592	0.4	1.2	1.08	0.997	0.558	0.318	0.319	0.329	0.306	0.274	0.294	0.354	0.458	0.236	0.46	0.927	0.363
201T	1.11	1.06	1.07	1.06	0.975	0.941	0.968	0.818	0.476	0.415	0.468	0.431	0.364	0.571	0.67	0.558	0.558	1.07	0.956	0.593
LCLC-103H	1.12	0.938	1.06	1.09	1.23	1.1	1.34	1.1	0.335	0.31	0.352	0.351	0.269	0.418	0.564	0.382	0.362	1.01	0.999	0.448
NCI-H1915	0.967	0.958	0.999	0.962	1.09	1.16	1.18	0.972	0.391	0.359	0.39	0.385	0.347	0.33	0.319	0.217	0.204	1.03	1.13	0.305
NCI-H2085	1.04	0.929	1.12	0.98	0.979	0.891	0.941	0.926	0.762	0.674	0.558	0.869	0.481	0.278	0.282	0.293	0.299	0.892	0.847	0.268
NCI-H2228	1.23	0.931	0.824	0.635	0.955	0.866	0.758	0.395	0.356	0.294	0.284	0.457	0.194	0.399	0.484	0.401	0.198	1.2	0.635	0.457
EKVX	1.06	1.11	1.21	0.912	1.2	0.893	0.932	0.681	0.241	0.223	0.204	0.221	0.226	0.523	0.481	0.519	0.366	1.02	0.643	0.603
COR-L23	1.1	0.997	1	1.06	0.958	0.897	0.964	0.719	0.444	0.438	0.472	0.502	0.427	0.483	0.521	0.386	0.341	1.06	1.16	0.534
SK-MES-1					1.04	1.05	1.02	0.983	0.708	0.626	0.718	0.628	0.445	0.313	0.315	0.199	0.285		1.02	0.372
A549					0.623	0.597	0.599	0.406	0.182	0.214	0.157	0.13	0.103						0.43	
NCI-H650	0.828	0.709	0.753	1.02	0.959	0.843	0.949	0.714	0.448	0.429	0.45	0.494	0.468		0.453	0.295	0.293	0.961	0.863	0.366
NCI-H2087	0.996	1.07	0.77	0.937	1.18	0.873	1.05	0.864	0.562	0.486	0.427	0.438	0.375	0.836	0.675	0.431	0.52	1.16	1.23	0.661
